Patent US10106532B2, “Inhibitors of beta-hydroxylase for treatment of cancer” (MIDWESTERN UNIVERSITY, priority 2012, dated 2018)
Entries after “also recorded” stand apart in the source; their conditions may differ.

Tests used:
FOCUS HCC cells = experiment: colony formation assay; type: cell-based, human; conditions: 5 μM
Experimental: (§1) A MTT assay was performed to evaluate the effect of MO-1-1100 on cell proliferation and viability. MTT is reduced to purple formazan in living cells. FOCUS cells were used as a high ASPH expressing human HCC cell line. […] The MTT assay measures cellular metabolic activity via NAD(P)H-dependent cellular oxidoreductase enzymes. […] In order to evaluate the effect of long-term exposure of MO-1-1100, the colony formation assay (an assay of malignant potential and phenotype) in which cells were treated with inhibitor for 3 weeks was performed.

ASPH = molecular target: T1, ASPH (Homo sapiens, UniProt Q12797); experiment: high throughput 14CO2 capture enzymatic assay for ASPH β-hydroxylase activity (ASPH mAb capture from lysates of treated FOCUS cells); type: biochemical; set-up: endogenous in cells; host or cells: FOCUS cells (human hepatocellular carcinoma line)
T1 sequence (Q12797 1-758): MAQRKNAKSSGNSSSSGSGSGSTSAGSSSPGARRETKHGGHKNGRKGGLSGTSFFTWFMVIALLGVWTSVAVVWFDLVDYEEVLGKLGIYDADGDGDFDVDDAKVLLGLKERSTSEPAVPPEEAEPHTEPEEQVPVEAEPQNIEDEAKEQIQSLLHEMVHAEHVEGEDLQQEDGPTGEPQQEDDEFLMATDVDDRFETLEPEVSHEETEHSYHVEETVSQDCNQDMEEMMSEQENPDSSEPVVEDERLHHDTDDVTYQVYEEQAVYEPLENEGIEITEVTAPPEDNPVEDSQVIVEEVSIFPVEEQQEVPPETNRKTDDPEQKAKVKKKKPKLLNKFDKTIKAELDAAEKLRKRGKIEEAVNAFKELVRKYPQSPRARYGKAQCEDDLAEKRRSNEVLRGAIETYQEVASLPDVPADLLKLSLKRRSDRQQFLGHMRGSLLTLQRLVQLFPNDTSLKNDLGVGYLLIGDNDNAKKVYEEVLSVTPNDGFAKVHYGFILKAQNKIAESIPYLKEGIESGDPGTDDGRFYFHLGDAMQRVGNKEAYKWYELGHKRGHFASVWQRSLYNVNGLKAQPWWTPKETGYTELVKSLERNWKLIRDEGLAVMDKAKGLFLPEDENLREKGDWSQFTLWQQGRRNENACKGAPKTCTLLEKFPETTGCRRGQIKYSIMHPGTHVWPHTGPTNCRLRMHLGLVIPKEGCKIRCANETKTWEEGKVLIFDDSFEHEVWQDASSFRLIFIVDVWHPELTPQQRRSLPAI
Experimental: In yet another aspect, the disclosure provides a method determining ASPH activity by contacting an EGF-like domain peptide with a detectably-labeled α-ketoglutarate and ASPH enzyme and measuring β-hydroxylase activity. In one embodiment, said α-ketoglutarate is ^14C-labelled, and wherein β-hydroxylase activity is measured by detecting liberated ^14CO2. In one embodiment, said liberated ^14CO2 is captured on a filter and radioactivity quantified. […] In one embodiment, said EGF-like domain comprises the amino acid sequence of […] (SEQ ID NO:1). In one embodiment, said EGF-like domain peptide comprises the consensus sequence of CDXXXCXXKXGNGXCDXXCNNAACXXDGXDC (SEQ ID NO: 2).
FIG. 3A is a diagram of the biochemical reaction catalyzed by ASPH derived from PC cell lysates. FIG. 3B is a cartoon illustrating the read-out to quantify ASPH activity in PC cells and tumors. FIG. 3C is an image of membrane was obtained by a phosphor-imager after a 16 hour exposure of the trapping filter to a phospho-screen. FIG. 3D is a bar graph showing intensities were calculated by Image J software and compared to a DMSO control. Vertical bars represent standard deviation. These figures show methods of measurement and data relating to ASPH catalytic activity.
EGF and EGF-like domains are well known in the art and generally include six cysteine residues which have been shown (in EGF) to be involved in disulfide bonds. The main structure is a two-stranded beta-sheet followed by a loop to a C-terminal short two-stranded sheet. Subdomains between the conserved cysteines vary in length. Examples include those described in Davis, C G, 1990, New Biol. 2(5):410-9; Blomquist et al., 1984, Proc Natl Acad Sci USA. 81(23):7363-7; Hommel et al., […], J Mol Biol. 227(1):271-82; Doolittle et al., 1984, Nature. 307(5951):558-60; Appella et al., 1988, FEBS Lett. 231(1):1-4; Sorkin A., 2001, Biochem Soc Trans. August; 29(Pt 4):480-4; each of which is hereby incorporated by reference). FIGS. 3A-C represents the strategy for development and characterization of the performance of an assay to measure ASPH enzymatic activity. FIG. 3A describes the biochemical reaction catalyzed by ASPH. FIG. 3B depicts the read-out of the assay. Protein lysates were extracted from FOCUS cells (high level of ASPH cell surface expression) treated with 1-10 μM of each parent compound for 24 hours. The lysates were added into 96 well-plates coated with ASPH monoclonal antibodies (mAbs) to add an antigen specific (ASPH) capture step to the assay design. After incubation and washing, only ASPH is captured on each well. The reaction is carried out with 60 μM of an EGF domain containing 39AA peptide, 100 μM FeCl2 and 40 μM ^14C labeled α-ketoglutarate were added into each well. The ^14CO2 was captured on a glass fiber membrane soaked in Ca(OH)2. […] The compound was further characterized for clinical use as an anti-tumor agent for PC and HCC and other ASPH-expressing tumors.

Hep3B = experiment: cell viability; type: cell-based, human; conditions: 5 μM
FOCUS cells = experiment: MTT assay (cell proliferation, metabolic activity); type: cell-based, human; conditions: 24 hours
Experimental: as §1

[1] = test system: HPAFH AsPC-1 human PC cell line; experiment: subcutaneous pancreatic cancer tumor growth in nude mice; type: in vivo
Experimental: FIG. 4A is a line graph showing tumor volume, and FIG. 4B is a bar graph showing tomor weight. […] There were 15 nude mice in each group. i.p. injection (20 mg/kg/mouse). Vertical bars; standard error.
The HPAFH AsPC-1 human PC cell line which expresses a high level of ASPH was implanted (5×10^6 cells s.c.) into the back of nude mice. Tumors were allowed to grow to approximately 100 mm^3 after one week, and MO-1-1100 was then administered intraperitoneal (i.p.) at a concentration of 50 mg/kg. The treatment regimen as shown in FIGS. 4A-B included i.p. injections on a daily basis for five days followed by every other day until the experiment was terminated due to the large size of tumors observed in the control group that received a DMSO vehicle injection. […] There were 15 nude mice in each group (control vs. treatment).

HepG2 = experiment: cell viability; type: cell-based, human; conditions: 5 μM

NC1=C(OS(=O)(=O)Cc2ccccc2)C(=O)C(c2ccc(Cl)cc2)O1 (racemic) [MO-1-1100]
colony formation (FOCUS HCC cells): reduced colony formation; also recorded: strikingly inhibited | colony formation, inhibition rate (FOCUS HCC cells; 3 weeks): 36.8% | identified as hits (screening for inhibition of β-hydroxylase activity) (ASPH): identified as hits | β-hydroxylase activity (ASPH; 1 μM): substantially inhibits | ASPH enzymatic inhibitory activity (β-hydroxylase) (ASPH; concentration not given): inhibit | cell viability, inhibition rate (Hep3B): 60% | OD (optical density) value, MTT (FOCUS cells): dose-dependently decreased | HPAFH tumor formation, growth rate ([1]; i.p. 50 mg/kg, daily for five days followed by every other day): substantial inhibition | PC tumor growth (tumor volume, tumor weight) ([1]; i.p. injection (20 mg/kg/mouse), FIG. 4 legend): anti-tumor effect | cell viability, inhibition rate (HepG2): 59%
